Laboratory results reported in article PMC11513923, “Discovery of ZLC491 as a Potent, Selective, and Orally Bioavailable CDK12/13 PROTAC Degrader” (Journal of Medicinal Chemistry, 2024).

Columns and labels:
[1] = Pharmacokinetics in rats; type: in vivo, rat; details: male, Sprague-Dawley, rat, plasma
Protocol: We further evaluated the in vivo PK properties of compound ZLC491 and the counterpart 4m (without F substitution) in rats, and the results were summarized in Table 2. […] The PK profiles of F-containing compound ZLC491 were further improved.
The pharmacokinetic investigation was taken by Shanghai Medicilon Inc. (Project Code: 26048-23001-NG). Sprague–Dawley male rats (Specific pathogen Free (SPF), provided by Zhejiang Vital River Laboratory Animal Technology Co. Ltd.) were dosed with ZLC491 solution formulation (5% DMSO, 10% Solutol, 85% normal saline, 2.5 mg/kg for intravenous dose, 10 mg/kg for oral dose) or compound 4m solution formulation (5% DMSO, 10% Solutol, 85% (20%HP-β-CD), 2.5 mg/kg for intravenous dose, 10 mg/kg for oral dose). Blood samples were collected at 0.083, 0.25, 0.5, 1, 2, 4, 8, and 24 h in intravenous administration, 0.25, 0.5, 1, 2, 4, 6, 8, and 24 h in oral administration. The blood samples were collected from sets of three rats at each time point in labeled microcentrifuge tubes containing heparin sodium as an anticoagulant. Plasma samples were separated by centrifugation (2–8 °C, 6800g for 6 min) within 1 h and stored below −80 °C until bioanalysis. All samples were processed for analysis by precipitation using acetonitrile and analyzed with a partially validated LC/MS/MS method. Pharmacokinetic parameters were calculated using the noncompartmental analysis tool of WinNonlin Enterprise software.

[2] = tested on: MDA-MB-231 xenograft tumors; assay: Histology of tumors (H&E staining, TUNEL IHC) in MDA-MB-231 xenograft model; type: in vivo, mouse; details: 100 and 200 mg/kg orally, 5 days; particularly at 200 mg/kg
Protocol: We further performed pharmacodynamic studies of ZLC491 in an MDA-MB-231 xenografted mouse model. ZLC491 was orally administrated at two doses of 100 and 200 mg/kg, respectively, for 5 consecutive days (Figure 7A). Tumor tissues were harvested on day 5 and subjected to Western blot analysis. […] Additionally, we conducted further histological analysis on the tumors following ZLC491 treatment.
Figure 7 ZLC491 depleted CDK12 and CDK13 proteins in vivo. (A) Study design of pharmacodynamics assessment on target engagement of ZLC491 in the MDA-MB-231 xenograft model; (B) immunoblotting of CDK12, CDK13, and α-tubulin in tissue lysate of MDA-MB-231 xenografts model after ZLC491 treatment; (C) protein levels were quantified using ImageJ and normalized to corresponding α-tubulin, then plotted using GraphPad Prism 8.0; (D) immunohistochemistry (IHC) analysis on the tumors by H&E staining and TUNEL assays; (E) TUNEL histology scores were analyzed and plotted by GraphPad Prism 8.0; (F) body weight change during the treatment.
H&E staining of formalin-fixed paraffin embedded (FFPE) tissue sections was performed using Leica Autostainer XL as per manufacturer’s protocol. […] Cells which were intensely stained for DAB pigment were considered to be apoptotic and they were quantified as numbers per 10 high power field (hpf, 400× magnification).

[3] = tested on: CCNK; assay: Immunoblotting of CCNK in MDA-MB-231 cells; type: cell-based, human; details: MDA-MB-231, increasing concentrations, 15 h
Protocol: The global proteomic selectivity of ZLC491 was investigated by using the tandem mass tag (TMT) labeled mass-spectrometry. […] CDK13 was not detected in either degrader treatment groups or DMSO control groups, likely due to its insufficient cellular expression for mass spectrometry detection.
Generally, the tested cells were washed by ice-cold PBS buffer (Gibco) and lysed with an SDS lysis buffer (62.5 mM Tris, 2% w/v SDS, 10 glycerol, 50 mM DTT, 0.01% w/v bromophenol blue) on ice, after which the protein lysate samples were collected to 1.5 mL microcentrifuge tubes and treated with ultrasonic for 10 s, following with a 100 °C incubation for 10 min and a 4 °C centrifugation of 12000 rpm for 10 min. An equal amount of protein was loaded to 4–8% Bis-Tris gels and underwent an SDS-PAGE electrophoresis at 55V for 30 min and 95V for 90 min. Proteins on gels were then transferred to a polyvinylidene difluoride (PVDF) membrane (Bio-Rad) with a wet electro transfer system (Bio-Rad). The PVDF membrane was cut into bands and incubated in a blocking reagent (5% defatted milk powder dissolved in TBST) at room temperature for 1–2 h. Incubate membrane and primary antibody (at the appropriate dilution and diluent as recommended in the product webpage) at 4 °C for 12–14 h, followed with three times washes by TBST. […]

## N#Cc1ccc(N[C@H]2CC[C@H](N(C(=O)NCc3ccccc3)c3ccc(N4CCN(C5CCN(c6cc7c(cc6F)C(=O)N(C6CCC(=O)NC6=O)C7=O)CC5)CC4)cc3)CC2)nc1 (stereo partly shown) [ZLC491, 3-Benzyl-1-((1r,4r)-4-((5-cyanopyridin-2-yl)amino)cyclohexyl)-1-(4-(4-(1-(2-(2,6-dioxopiperidin-3-yl)-6-fluoro-1,3-dioxoisoindolin-5-yl)piperidin-4-yl)piperazin-1-yl)phenyl)urea]
[1]; iv, i.v. 2.5 mg/kg
  AUC(0-t) at 24 h: 6820 ng·h/mL
  Cmax at 24 h: 4590 ng/mL
  clearance at 24 h: 6.38 mL/min/kg
  half-life at 24 h: 2.46 h
[1]; oral bioavailability, p.o. 10 mg/kg vs i.v. 2.5 mg/kg
  bioavailability at 24 h: 46.8%
[1]; po, p.o. 10 mg/kg
  AUC(0-t) at 24 h: 12800 ng·h/mL
  Cmax at 24 h: 1310 ng/mL
  half-life at 24 h: 2.92 h
[2]
  apoptosis in tumors (H&E staining, TUNEL IHC): marked apoptosis and increased TUNEL signaling
[3]
  CCNK degradation by Western blotting: dose-dependently degraded
